The nature of series [1]: Solubility in solvents (physicochemical characteristics, Table 1). From the text: Based on the above-mentioned spectral data and physicochemical characteristics shown in Table 1, the structures of Compounds(I), (II) and (III) was unequivocally settled. Compounds(II) and (III) are sclerotiorine and isochromopilone, respectively, which are known compounds, while Compound(I) is a novel compound.

Series [2] concerns the target T1, Grb2-Shc binding (GST-Grb2 fusion protein, [3H]propionylated-hShc peptide) (Homo sapiens, UniProt P62993).
T1 construct: purchased Santa Cruz Biotech Inc
In words: Grb2-Shc binding inhibition, scintillation proximity assay. The settings on record: SPA, competition with [3H]propionylated-hShc peptide for GST-Grb2, room temperature 30 minutes, pH 7.4; read-out: concentration required for inhibiting the Grb2-Shc binding by 50% (IC50). The procedure: The activity of the inventive compound in inhibiting Grb2-Shc binding was determined in accordance with the scintillation proximity assay method by way of measuring the extents of competitive bindings of [^3H]propionylated-hShc peptide and the inventive compound toward Grb2.
Added to a 1.5 ml eppendorf tube were 10 μl of 0.3 μg GST-Grb2 fusion protein(Santa Cruz Biotech Inc.), 10 μl of SPA PVT antibody-binding beads(Amersham Co.), 10 μl of 0.1 μ Ci [^3H]propionylated-hShc peptide(Amersham Co.), 10 μl of 6 μg anti-GST rabbit IgG(Molecular Probes) and 10 μl of a DMSO solution containing each of the compounds obtained in Example 2 and the total volume was adjusted to 200 μl using SH2 buffer solution(20 mM Tris-HCI, 250 mM NaCl and 0.1% cow serum albumin, pH 7.4). The resulting mixture(sample) was reacted at room temperature for 30 minutes. After the completion of the reaction, the Grb2-Shc binding inhibiting activity was determined by examining the extent of comparative binding of [^3H]propionylated-hShc peptides toward Grb2 proteins, expressed by a unit of count per minute(CPM), with a liquid scintillation counter. The same procedure was repeated in the absence of GST-Grb2(blank) or in the absence of any added compounds(control).
The Grb2-Shc binding inhibiting activity was then calculated in accordance with the following equation: [formula]
Background: In a scintillation proximity assay essentially only radioactivity close to the scintillant gives light.

Another series concerns phospholipase A2. The settings on record: reported in the literature; cited from earlier work.

Where “and” joins values, the source holds several entries; their conditions need not be identical. Equal entries are not always repeated.

T1 sequence (P62993 whole entry, the tested form may be a part): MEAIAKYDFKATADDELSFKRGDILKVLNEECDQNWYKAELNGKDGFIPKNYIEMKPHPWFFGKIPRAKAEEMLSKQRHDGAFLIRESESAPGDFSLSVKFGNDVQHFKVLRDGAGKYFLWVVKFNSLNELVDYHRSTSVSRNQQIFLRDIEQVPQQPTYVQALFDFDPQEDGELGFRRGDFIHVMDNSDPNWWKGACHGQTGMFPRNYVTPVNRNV

Turning to `CCC(C)/C=C(C)/C=C/C1=CC2=C(Cl)C(=O)[C@](C)(O)C(OC(C)=O)C2CO1` (stereo partly shown) [Compound(III), isochromopilone IV], the Soluble entry in series [1] (solvents in which the compound is soluble) is “CHCl3, EtOAc, and MeOH”. In addition, in series [2], the IC50 is ~11 µM and 11 µM.

On to `CCC(C)/C=C(C)/C=C/C1=CC2=C(Cl)C(=O)[C@](C)(OC(C)=O)C(=O)C2=CO1` (stereo partly shown) [Compound(II), sclerotiorine], for which, in series [1], the Insoluble entry was “H2O”. Further, in series [2], the IC50 is ~12 µM and 12 µM. For the same compound, the “phospholipase A2 inhibiting activity” value in the series with phospholipase A2 was “phospholipase A2 inhibiting activity”.

Turning to `CCC(C)/C=C(C)/C=C/c1cc2c(cn1)=C(OC)[C@@](C)(OC(C)=O)C(=O)C=2Cl` (stereo partly shown) [Compound(I)], in series [1], the Insoluble result is reported as “H2O”. Also, the IC50 in series [2] was ~6 µM and 6 µM.

The values above are taken from patent US6620938B1, “Compounds that inhibit GRB2-SHC binding and process for preparing same” (Korea Research Institute of Bioscience and Biotechnology, priority 1999, dated 2003).
